Here are results for one substance from patent US20170114021A1, “HALOGEN-SUBSTITUTED COMPOUNDS” (priority 2014, published 2017).

A short description of series [1]: log P by HPLC on reversed-phase column (C18), EEC Directive 79/831 Annex V.A8. It is filed as physicochemical. Here is the method: ^a) Unless indicated otherwise, the following method was used to determine the log P values and masses: The determination of the given log P values was carried out in accordance with EEC Directive 79/831 Annex V.A8 by HPLC (High Performance Liquid Chromatography) on a reversed-phase column (C18). Agilent 1100 LC system; 50*4.6 Zorbax Eclipse Plus C18 1.8 micron; mobile phase A: acetonitrile (0.1% formic acid); mobile phase B: water (0.09% formic acid); linear gradient from 10% acetonitrile to 95% acetonitrile in 4.25 min, then 95% acetonitrile for a further 1.25 min; oven temperature 55° C.; flow rate: 2.0 ml/min. Mass detection is effected by means of an Agilend MSD system.

The subject of the next series is Boophilus microplus. As to the kind of experiment: Boophilus microplus injection test (BOOPMI Inj). The class given is in vivo. The following applies: application rate 4 μg/animal; injection into abdomen. The protocol: Boophilus microplus—Injection Test (BOOPMI Inj) Solvent: dimethyl sulphoxide
To produce a suitable preparation of active compound, 10 mg of active compound are mixed with 0.5 ml of solvent and the concentrate is diluted with solvent to the desired concentration.
1 μl of the active compound solution is injected into the abdomen of 5 engorged adult female cattle ticks (Boophilus microplus). The animals are transferred into dishes and kept in a climate-controlled room.
The activity is assessed after the desired time by laying of fertile eggs. Eggs which are not visibly fertile are stored in a climate-controlled cabinet until the larvae hatch after about 42 days. An efficacy of 100% means that none of the ticks has laid any fertile eggs; 0% means that all the eggs are fertile.

The test system of the next series is Myzus persicae. Nature of the series: Myzus persicae spray test (MYZUPE). It is filed as in vivo. The note with it: application rate 100 g/ha; Chinese cabbage leaf discs; after 6 days. Here is the method:
Myzus persicae—Spray Test (MYZUPE) Solvent: 78 parts by weight of acetone • • 1.5 parts by weight of dimethylformamide Emulsifier: alkylaryl polyglycol ether
(§1) To produce a suitable preparation of active compound, 1 part by weight of active compound is dissolved using the specified parts by weight of solvent and made up with water containing an emulsifier concentration of 1000 ppm until the desired concentration is attained. To produce further test concentrations, the preparation is diluted with emulsifier-containing water.
Discs of Chinese cabbage leaves (Brassica pekinensis) infested by all stages of the green peach aphid (Myzus persicae) are sprayed with an active compound preparation of the desired concentration.
After 6 days, efficacy in % is determined. 100% means that all the aphids have been killed; 0% means that no aphids have been killed.

The test system of another series is Spodoptera frugiperda. Nature of the series: Spodoptera frugiperda spray test (SPODFR). The class given is in vivo. The note with it: application rate 100 g/ha; maize leaf discs; after 7 days. Here is the method: Spodoptera frugiperda—Spray Test (SPODFR)
Solvent: 78.0 parts by weight of acetone • • 1.5 parts by weight of dimethylformamide Emulsifier: alkylaryl polyglycol ether
as §1
Leaf discs of maize (Zea mays) are sprayed with an active compound preparation of the desired concentration and, after drying, populated with caterpillars of the armyworm (Spodoptera frugiperda).
After 7 days, efficacy in % is determined. 100% means that all the caterpillars have been killed; 0% means that no caterpillars have been killed.

The next series has as its system Rhipicephalus sanguineus. Nature of the series: Rhipicephalus sanguineus in vitro contact test. The class given is in vivo. The following applies: application rate 5 μg/cm^2; adult dog ticks; after 48 h. Here is the method:
Rhipicephalus sanguineus—In Vitro Contact Tests
(§2) For the coating of the test tubes, 9 mg of active compound are first dissolved in 1 ml of acetone p.a. and then diluted to the desired concentration with acetone p.a. 250 μl of the solution are distributed homogeneously on the inner walls and the base of a 25 ml test tube by turning and rocking on an orbital shaker (rocking rotation at 30 rpm for 2 h). With 900 ppm active compound solution and internal surface 44.7 cm^2, given homogeneous distribution, an area-based dose of 5 μg/cm^2 is achieved.
After the solvent has evaporated off, the tubes are populated with 5-10 adult dog ticks (Rhipicephalus sanguineus), sealed with a perforated plastic lid and incubated in a horizontal position in the dark at room temperature and ambient humidity. After 48 h, efficacy is determined. To this end, the ticks are knocked to the floor of the tube and incubated on a hotplate at 45-50° C. for not more than 5 min. Ticks which remain motionless on the floor or move in such an uncoordinated manner that they are unable to deliberately avoid the heat by climbing upwards are considered to be dead or moribund.
An efficacy of 100% means that all the ticks were dead or moribund. 0% efficacy means that none of the ticks had been harmed.

Another series has as its system Tetranychus urticae. As to the kind of experiment: Tetranychus urticae spray test, OP-resistant (TETRUR). It is filed as in vivo. The note with it: application rate 100 g/ha; bean leaf discs; after 6 days. Here is the method:
Tetranychus urticae—Spray Test, OP-Resistant (TETRUR) Solvent: 78.0 parts by weight of acetone • • 1.5 parts by weight of dimethylformamide Emulsifier: alkylaryl polyglycol ether
as §1
Discs of bean leaves (Phaseolus vulgaris) infested by all stages of the greenhouse red spider mite (Tetranychus urticae) are sprayed with an active ingredient formulation of the desired concentration.
After 6 days, efficacy in % is determined. 100% means that all the spider mites have been killed; 0% means that no spider mites have been killed.

The subject of a further series is Lucilia cuprina. As to the kind of experiment: Lucilia cuprina test (LUCICU). The class given is in vivo. The following applies: application rate 20 ppm; L1 larvae; after 2 days. Here is the method: Lucilia cuprina-Test (LUCICU) Solvent: dimethyl sulphoxide
(§3) To produce a suitable preparation of active compound, 10 mg of active compound are mixed with 0.5 ml of dimethyl sulphoxide, and the concentrate is diluted with water to the desired concentration.
About 20 L1 larvae of the Australian sheep blowfly (Lucilia cuprina) are transferred into a test vessel containing minced horsemeat and the active compound preparation of the desired concentration.
After 2 days, the kill in % is determined. 100% means that all the larvae have been killed; 0% means that no larvae have been killed.

In another series the test system is Musca domestica. As to the kind of experiment: Musca domestica test (MUSCDO). The class given is in vivo. The following applies: application rate 20 ppm; adult houseflies; after 2 days. Here is the method:
Musca domestica-Test (MUSCDO) Solvent: dimethyl sulphoxide
as §3
Vessels containing a sponge treated with sugar solution and the active compound preparation of the desired concentration are populated with 10 adult houseflies (Musca domestica).
After 2 days, the kill in % is determined. 100% means that all of the flies have been killed; 0% means that none of the flies have been killed.

In another series the test system is Ctenocephalides felis. Nature of the series: Ctenocephalides felis in vitro contact test. The class given is in vivo. The following applies: application rate 5 μg/cm^2; adult cat fleas; after 48 h. The protocol: Ctenocephalides felis—In Vitro Contact Test
as §2
After the solvent has evaporated off, the tubes are populated with 5-10 adult cat fleas (Ctenocephalides felis), sealed with a perforated plastic lid and incubated in a horizontal position at room temperature and ambient humidity. After 48 h, efficacy is determined. To this end, the test tubes are stood upright and the fleas are knocked to the base of the tube. Fleas which remain motionless at the base or move in an uncoordinated manner are considered to be dead or moribund.
100% efficacy means that all the fleas were dead or moribund. 0% efficacy means that no fleas were harmed.

The next series deals with Amblyomma hebraeum. Nature of the series: Amblyomma hebaraeum test (AMBYHE), tick nymph immersion. The following applies: application rate 20 ppm; tick nymphs; after 42 days. It is filed as in vivo. The protocol: Amblyomma hebaraeum Test (AMBYHE) Solvent: dimethyl sulphoxide
as §3
Tick nymphs (Amblyomma hebraeum) are placed into perforated plastic beakers and immersed in the desired concentration for one minute. The ticks are transferred on filter paper into a Petri dish and stored in a climate-controlled cabinet.
After 42 days, the kill in % is determined. 100% means that all of the ticks have been killed; 0% means that none of the ticks have been killed.

As a reminder, the log P is the decadic logarithm of the partition coefficient of the neutral form, usually between octanol and water. A high value points to higher lipophilicity. For the substance “N-{2-fluoro-5-[2′-methyl-5′-(pentafluoroethyl)-4′-(trifluoromethyl)-2′H-1,3′-bipyrazol-4-yl]benzyl}propanamide [Ic-1]”, the “log P” value in series [1] is 3.83. The “efficacy (laying of fertile eggs)” value in the series with Boophilus microplus was determined as 100%. In addition, the efficacy was found to be 90% with Myzus persicae; 100% in the series on Spodoptera frugiperda; 100% with Rhipicephalus sanguineus; 100% with Tetranychus urticae; 100% in the series on Ctenocephalides felis. In addition, the “efficacy (kill)” value in the series on Lucilia cuprina, in the series with Musca domestica and with Amblyomma hebraeum was 100% in each case.
